Data from patent publication US6338963B1, “Use of carbon monoxide dependent guanylyl cyclase modifiers to stimulate neuritogenesis” (NeoTherapeutics, Inc., priority 1994, dated 2002).

Experiments:
[1] = test system: cGMP levels in PC12 cells; assay: cGMP levels in PC12 cells (radioimmunoassay); format: cell-based, rat; conditions: NGF-primed PC12 cells
Protocol: Initially, PC-12 cells were primed with 40 ng/ml NGF for 3 days in low serum medium (1.5% horse serum+5% fetal calf serum). Cells were seeded onto assay plates in low serum medium containing 40 ng/ml NGF and incubated for 1 hour. The medium was changed to low arginine medium (80 μM) with no serum and NGF and papaverine ([…]) where indicated. Test compounds were added for the indicated time and the reaction was stopped by adding 5% TCA containing 10,000 dpm of ^3H-cGMP. cGMP was assayed by the radioimmunoassay method of Maurice (Mol. Pharmacol. 37: 671-681, 1990). TCA was purified by adding powdered charcoal (5 g) and filtering the mixture through Whatman #1 paper. This removed contaminants in the TCA that otherwise interfere with the radioimmunoassay (RIA) of cGMP.
It was necessary to purify the cGMP from cAMP and other contaminants before radioimmunoassay since these other materials can interfere with the assay. Briefly, the TCA solution was applied to Dowex columns (50W-8X, 200-400 mesh) and eluted. A neutral alumina column was then placed under each Dowex column. The cGMP was eluted from the Dowex columns into neutral alumina columns by adding 4 mL of 0.05 M HCl to each Dowex column. The neutral alumina columns were then sequentially rinsed with 2 ml of HCl, 4 mL water and finally with 0.2 M sodium acetate (pH 6.2). The cGMP collected for the RIA eluted in 1 ML of sodium acetate with a recovery between 50-65%. The cGMP was assayed using a Dupont RIA kit.

NGF mRNA = assay: Northern/slot blot of neurotrophin mRNA from astrocytes: NGF; format: cell-based, NIH Swiss mice; set-up: key to NGF mRNA: The conditions which produced a detectable amount of each of the neurotrophin mRNAs are indicated by a “+”; a “++” indicating that at least twice the detectable amount was present; Those blots which were negative are indicated by a “−”; conditions: for NGF mRNA: 24 hours
Protocol: (§1) Induction of neurotrophin mRNA was determined by northern blot analysis of astrocytes cultured with AIT-082, NGF, or both. The cells were harvested and RNA extracted at 24 hours after treatment.
(§2) More particularly, astrocytes from the cerebral cortex of NIH Swiss mice (Harlan) were isolated. Briefly, newborn pups (0-24 hours) were decapitated. Their brains were removed under aseptic conditions and were placed in modified Dulbecco's medium (DMEM) containing 20% heat-inactivated horse serum (Hyclone) (“complete medium”). The neopallium was then dissected from each cerebral hemisphere and minced into 1 mm cubes.
(§3) The astrocytes were then isolated by mechanical dissociation. The cubes were vortexed at maximum speed for one minute. The cell suspension was then passed first through 75 mm Nitex then through 10 mm Nitex. The resulting cell suspension was diluted in complete medium to a final concentration of one brain per 10 ml of complete medium. Ten milliliters of the diluted cell suspension was added to each 100 mm Falcon tissue culture plate (Fisher). After 3 days the medium was replaced with 10 ml fresh complete medium and subsequently was replaced twice weekly with DMEM containing 10% heat inactivated horse serum (“growth medium”). After two weeks in culture the astrocytes formed a confluent monolayer.
(§4) For RNA extraction, astrocytes were trypsinized. The astrocytes were then replated onto 100 mm PORN coated plates at a cell density of 10^6 cells per plate (10 ml growth medium). After 2 hrs PBS, guanosine (Guo), or GTP at 10 mM were added to the appropriate plates. Total RNA was harvested from 1.5×10^7 cells for each treatment, 4 and 24 hrs after treatment using TRIzol reagent and supplier protocol (GIBCO BRL/Life Technologies, Inc.). For slot blots, total RNA was bound to Hybond-N filters (Amersham/United States Biochemicals) as described in Transfer and Immobilization of Nucleic Acids and Proteins to S & S Solid Supports (S and S Protocols: Schleicher & Schuell, New Hampshire, USA). Northern blots were also performed using […] total RNA from each sample. These were electrophoresed in 1% agarose gels containing formaldehyde and blotted onto Hybond-N filters according to S and S protocols.
(§5) The blots were probed with ^32P-labeled cDNA (NGF, NT-3 and BDNF probes) or oligonucleotide probe (FGF-2) by hybridization in Piperazine-N,N′-bis-(2-ethanesulfonic acid) (PIPES) buffer (50 mM PIPES, pH 6.8; 50 mM NaH2PO4; 0.1 M NaCl; 5% SDS and 1 mM EDTA) overnight at 50° C. […] Various concentrations ([…] of total RNA), as determined by spectrophotometry, of each sample were blotted and probed so that quantification could be done after insuring a linear film response. Quantification was performed using MCID Image Analysis (St. Catherine's, Ontario, Canada). […]

FGF-2 mRNA = assay: Northern/slot blot of neurotrophin mRNA from astrocytes: FGF-2; format: cell-based, NIH Swiss mice; set-up: key to FGF-2 mRNA: The conditions which produced a detectable amount of each of the neurotrophin mRNAs are indicated by a “+”; a “++” indicating that at least twice the detectable amount was present; Those blots which were negative are indicated by a “−”; conditions: for FGF-2 mRNA: 24 hours
Protocol: as §1, §2, §3, §4, §5

TGFβ2 = TGFβ2 release from rat cultured astrocytes (ELISA); format: cell-based
Protocol: NGF and TGFβ2 levels were assayed in the culture medium of the astrocytes by specific ELISA assays using kits from Roche (Germany) and Promega (USA) respectively. NGF basal levels were 56.3±3.2 pg/ml. TGFβ2 levels were 9.1±0.06 pg/ml.
In FIG. 61, the dose-response curves of NGF and TGFβ2 release from rat cultured astrocytes as the result of exposure to AIT-082 are shown.

rat cultured astrocytes = assay: Release of radioactively labeled adenine-based purines from rat cultured astrocytes; format: cell-based

SMILES: O=C(CCn1cnc2c(=O)[nH]cnc21)Nc1ccc(C(=O)O)cc1 [AIT-082, N-4-carboxyphenyl-3-(6-oxohydropurin-9-yl)propanamide]
- cGMP in PC12 cells [1]: increased the production of cGMP
- NGF mRNA (NGF mRNA; AIT-082 100 mM): ++
- NGF mRNA (NGF mRNA; AIT-082 + NGF (40 ng/ml)): +
- FGF-2 mRNA (FGF-2 mRNA; AIT-082 100 mM): ++
- FGF-2 mRNA (FGF-2 mRNA; AIT-082 + NGF (40 ng/ml)): +
- increase of TGFβ2 production as compared to a control (TGFβ2; rat cultured astrocytes): 1.7 fold
- outflow of radioactive adenine-based purines (rat cultured astrocytes; astrocytes exposed for one hour): dose-dependent increase
- release of adenosine and inosine (rat cultured astrocytes; first hour of the release): increased the release of adenosine and inosine in a dose-dependent fashion
- release of hypoxanthine and the adenine nucleotides ATP, ADP, or AMP (rat cultured astrocytes; first hour of the release): without effecting the release

SMILES: Nc1nc2c(ncn2[C@@H]2O[C@H](CO)[C@@H](O)[C@H]2O)c(=O)[nH]1 [guanosine]
- cGMP in PC12 cells [1]: increased intracellular cGMP
- NGF mRNA in astrocytes (NGF mRNA; guanosine, 4 hours after addition): increased
- FGF-2 mRNA in astrocytes (FGF-2 mRNA; guanosine, 24 hours after addition): increased
- release of TGFβ2 from astrocytes (TGFβ2; exposure for 24 hours): dose-dependent increase
- ADP, radioactivity released in the culture medium (rat cultured astrocytes; 300 μM, 1 hour): 0.84 ± 0.09 cpm × 10^3
- AMP, proportional release (rat cultured astrocytes; 300 μM, 1 hour): (12.3 ± 1.7) percentage of the total [^3H]-purines released
- AMP, radioactivity released in the culture medium (rat cultured astrocytes; 300 μM, 1 hour): 1.58 ± 0.22 cpm × 10^3
- ATP, proportional release (rat cultured astrocytes; 300 μM, 1 hour): (5.5 ± 0.7) percentage of the total [^3H]-purines released
- ATP, radioactivity released in the culture medium (rat cultured astrocytes; 300 μM, 1 hour): 0.71 ± 0.09 cpm × 10^3
- Adenosine, radioactivity released in the culture medium (rat cultured astrocytes; 300 μM, 1 hour): 1.53 ± 0.10 cpm × 10^3
- Hypoxanthine, proportional release (rat cultured astrocytes; 300 μM, 1 hour): (24.7 ± 1.5) percentage of the total [^3H]-purines released
- Hypoxanthine, radioactivity released in the culture medium (rat cultured astrocytes; 300 μM, 1 hour): 3.41 ± 0.20 cpm × 10^3
- Inosine, radioactivity released in the culture medium (rat cultured astrocytes; 300 μM, 1 hour): 4.64 ± 0.51 cpm × 10^3
- ADP, proportional release (rat cultured astrocytes; 300 μM, 3 hours): (4.0 ± 0.6) percentage of the total [^3H]-purines released
- ADP, radioactivity released in the culture medium (rat cultured astrocytes; 300 μM, 3 hours): 0.50 ± 0.07 cpm × 10^3
- AMP, proportional release (rat cultured astrocytes; 300 μM, 3 hours): (11.9 ± 1.0) percentage of the total [^3H]-purines released
- AMP, radioactivity released in the culture medium (rat cultured astrocytes; 300 μM, 3 hours): 1.37 ± 0.14 cpm × 10^3
- ATP, proportional release (rat cultured astrocytes; 300 μM, 3 hours): (3.1 ± 0.32) percentage of the total [^3H]-purines released
- ATP, radioactivity released in the culture medium (rat cultured astrocytes; 300 μM, 3 hours): 0.39 ± 0.04 cpm × 10^3
- Adenosine, proportional release (rat cultured astrocytes; 300 μM, 3 hours): (9.3 ± 0.9) percentage of the total [^3H]-purines released
- Adenosine, radioactivity released in the culture medium (rat cultured astrocytes; 300 μM, 3 hours): 1.16 ± 0.15 cpm × 10^3
- Hypoxanthine, proportional release (rat cultured astrocytes; 300 μM, 3 hours): (26.3 ± 2.7) percentage of the total [^3H]-purines released
- Hypoxanthine, radioactivity released in the culture medium (rat cultured astrocytes; 300 μM, 3 hours): 3.29 ± 0.34 cpm × 10^3
- Inosine, proportional release (rat cultured astrocytes; 300 μM, 3 hours): (3.25 ± 3.3) percentage of the total [^3H]-purines released
- Inosine, radioactivity released in the culture medium (rat cultured astrocytes; 300 μM, 3 hours): 4.09 ± 0.41 cpm × 10^3
